What all share (assay): NCI anticancer screen, dose series, 48 h
Experiment [1] relates to IGROV1 ovarian.
Experiment [2] has as its system PC-3 prostate.
The subject of experiment [3] is UACC-257 melanoma.
Experiment [4] has as its system UACC-62 melanoma.
Experiment [5] has as its system HCT-15 colon.
The subject of experiment [6] is OVCAR-8 ovarian.
Experiment [7] concerns SK-OV-3 ovarian.
In experiment [8] the test system is SK-MEL-5 melanoma.
Experiment [9] concerns NCI-H522 lung.
Experiment [10] concerns OVCAR-5 ovarian.

The values below come from PubChem BioAssay (NCI).

The structures appear in SMILES notation.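 These data come from cells grown in 96-well plates and exposed to compound for 48 hours at five concentrations. Definition used: TGI = concentration required for complete inhibition of growth.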 Where a SMILES comes first, the peptide text is derived from it. Peptide text beside a SMILES is read from it. [ ]: non-standard residue; d: D form. The star is where a group is joined. * marks the point of attachment. Phe(4-NO2) = N[CH](Cc1ccc([N+](=O)[O-])cc1)C(=O)O; Boc = CC(C)(C)OC(=O)*; OtBu = CC(C)(C)O*

With `Cc1nc(C(N)=S)sc1C(=O)CC(=O)C(=O)Nc1cccc(Cl)c1C`, the TGI in experiment [1], in experiment [2], in [3], in experiment [4], in experiment [5] and in experiment [6] was > 100 µM in each case. For the same compound, the TGI in experiment [7], in experiment [8], in [9] and in experiment [10] was > 100 µM in each case.

As for `O=C(NCCCCl)c1c(O)c2ccccc2[nH]c1=O`, the TGI in experiment [1], in experiment [2], in experiment [3], in experiment [4], in [5] and in experiment [6] was > 100 µM in each case. Besides, the TGI in experiment [7], in [8], in experiment [9] and in experiment [10] was > 100 µM throughout.

`Clc1ncc(C(Cl)(Cl)Cl)nc1-c1ccccc1`: the TGI in experiment [1] is 8.05 µM; in [2] it was 3.38 µM; in experiment [3] it was 4.76 µM; in [4], 7.27 µM; in [5], 3.42 µM; in experiment [6], 7.16 µM. The TGI in experiment [7] was 24.3 µM; in experiment [8], 26.4 µM; in experiment [9] it was 6.72 µM; in [10], 30.9 µM.

On to `CSCCC(NC(=O)C(CC(C)C)NC(=O)CNC(=O)OC(C)(C)C)C(=O)N(C)C` (stereo not drawn) (Boc-Gly-Leu-Met-NMe2; configuration not given here), for which the TGI in experiment [1], in [2], in experiment [3], in experiment [4], in [5] and in experiment [6] was > 100 µM throughout. In addition, the TGI in experiment [7], in experiment [8], in [9] and in experiment [10] was > 100 µM in each case.

In the case of `COC1=CC2(C=CC1=O)CCN=c1c(O)c3c(c(O)c12)=NC=N3` (stereo not given), the TGI in experiment [1], in experiment [2], in experiment [3], in [4], in experiment [5] and in [6] was > 100 µM each time. The TGI in experiment [7], in [8], in [9] and in experiment [10] was > 100 µM in each case.

Consider `COc1cc2c(cc1OC)C1Cc3ccccc3CN1CCC2` (stereo not given), for which the TGI in experiment [1], in experiment [2], in [3], in experiment [4], in [5] and in [6] was > 100 µM in each case. Besides, the TGI in experiment [7], in experiment [8], in experiment [9] and in experiment [10] was > 100 µM each time.

For the compound `COC(=O)C(Cc1ccc([N+](=O)[O-])cc1)NC(=O)C(CC(=O)OC(C)(C)C)NC(=O)OC(C)(C)C` (stereo not given) (Boc-Asp(OtBu)-[Phe(4-NO2)]-OMe; configuration not given here), the TGI in experiment [1], in experiment [2], in experiment [3], in [4], in [5] and in [6] was > 100 µM in each case. Moreover, the TGI in experiment [7], in experiment [8], in experiment [9] and in [10] was > 100 µM in each case.

For `COC(=O)CNC(=O)/C=C/[C@H](O[Si](C)(C)C(C)(C)C)[C@H](/C=C/C(=O)NCC(=O)OC)O[Si](C)(C)C(C)(C)C`, the TGI in experiment [1], in [2], in experiment [3], in experiment [4], in [5] and in [6] was > 25 µM each time. In addition, the TGI in experiment [7], in experiment [8], in experiment [9] and in experiment [10] was > 25 µM each time.

`C/C(=N\O)c1ccc(Nc2c3ccccc3nc3occc23)cc1`: the TGI in experiment [1] was 8.59 µM; in [2], > 50 µM; in [3], > 44.6 µM; in [4] it was 16.6 µM; in experiment [5], 4.07 µM; in [6], 7.34 µM. In addition, the TGI in experiment [7] is 5.92 µM; in [8] it was 6.77 µM; in [9], 0.287 µM; in experiment [10], > 50 µM.

On to `CSc1s[s+]c(SC)c1-c1ccccc1`, for which the TGI in experiment [1] is > 100 µM; in experiment [2], 54.1 µM; in experiment [3] it was 27.8 µM; in experiment [4] it was 28.3 µM; in [5], 41.5 µM; in [6] it was 40.3 µM. For the same compound, the TGI in experiment [7] is 38 µM; in experiment [8], 29.3 µM; in experiment [9] it was 27.9 µM; in experiment [10], 31.2 µM.

As for `Cc1ccc(C2=Nn3c(nc4sc(-c5ccccc5)cc4c3=O)SC2)cc1`, the TGI in experiment [1], in experiment [2], in [3], in [4], in experiment [5] and in [6] was > 100 µM each time. Moreover, the TGI in [7], in experiment [8], in experiment [9] and in experiment [10] was > 100 µM throughout.

Regarding `COc1ccc(S(=O)(=O)Nc2ccc(-c3csc(N4C(=O)/C(=C/C=C\c5ccccc5)N=C4c4ccccc4)n3)cc2)cc1Cl`, the TGI in [1] was 56.5 µM; in experiment [2] it was > 100 µM; in experiment [3] it was > 100 µM; in experiment [4], 49.9 µM; in experiment [5] it was 51.5 µM; in [6] it was 88.4 µM. Also, the TGI in experiment [7] is > 100 µM; in experiment [8], > 100 µM; in experiment [9], 47.3 µM; in experiment [10] it was > 100 µM.

With `CSC1(SC)CCCCCCCCCCC1`, the TGI in experiment [1] is > 100 µM; in experiment [2] it was > 100 µM; in [3], 74 µM; in experiment [4] it was > 100 µM; in experiment [5] it was > 100 µM; in [6], > 100 µM. Further, the TGI in experiment [7] is > 100 µM; in experiment [8] it was > 100 µM; in [9], 34.9 µM; in [10] it was > 100 µM.
